Source: patent publication US10071987B2, “Aminomethylene pyrazolones with therapeutic activity” (Compound Handling B.V., priority 2012, dated 2018)
“And” between values parts separate entries of the source, which are not always exact repeats. Equal values may be shown once.

tested on: PC3 cells; test: Cell invasion assay (BD Biocoat Matrigel Invasion chambers, CellTiter-GLO readout); type: cell-based, human; settings: Homo sapiens, PC-3, PC3 cells incubated with compound (10 μM) for 4 days prior to assay; 48 hours invasion; versus DMSO treated cells; several values = repeated assays
Text: For determining the effectiveness of the compounds according to the invention, a model assay based on the migration of cells in a migration chamber was employed. This model is accepted in the art as providing representative data on the ability of cells to metastasize.
The PC-3 prostate cancer cell line (ATCC# CRL-1435) was maintained in RPMI-1640 medium (Invitrogen, 31870), supplemented with 10% Fetal Bovine Serum (Sigma, F7524), L-Glutamine (Invitrogen 25030-024). Cells were split once a week at a 1:10 ratio.
For cell invasion assays, PC3 cells were incubated in the presence of a compound according to the invention (10 μM) for 4 days, prior to the invasion assay. Forty thousand cells were seeded into BD Biocoat Matrigel Invasion chambers (8 micron; BD 354480) in serum-free medium. The invasion chamber was placed in a 24-well containing medium with 10% fetal calf serum as chemo-attractant. As a control, the same amount of cells was seeded in 24-well culture plates. After 48 hours incubation, cells in the invasion chamber were removed by aspiration and cleaning the inner compartment with a cotton swab. The invasion chamber was then put into CellTiter-GLO (CTG, Promega-G7571) cell viability reagent, incubated for 15 minutes, and then analyzed on a Victor3 luminometer. Cell invasion was calculated as the CTG activity on the lower part of the membrane divided by the CTG activity of the cells grown in a 24 well plate. Inhibition of cell invasion by a specific compound was estimated by comparing the amount of cell invasion of compound-treated cells versus DMSO treated cells.

SMILES	inhibition at 10 µM
N/C=C1/C(=O)N(c2nc3ccccc3s2)N=C1c1cccc(Br)c1	87%
C/C(NCc1ccc(Cl)c(Cl)c1)=C1\C(=O)N(c2nc3ccccc3s2)N=C1C(F)(F)F	56%
N/C=C1/C(=O)N(c2nc3ccccc3s2)N=C1c1cccc(C(F)(F)F)c1 [drawing 33]	91%
COc1ccc2nc(N3N=C(c4ccccc4)/C(=C\N)C3=O)sc2c1	70%
N/C=C1/C(=O)N(c2nc3ccccc3s2)N=C1c1cccc(I)c1	86%
Cc1ccc2nc(N3N=C(c4cccc(C(F)(F)F)c4)/C(=C\N)C3=O)sc2c1	67%
N/C=C1/C(=O)N(c2nc3ccccc3s2)N=C1c1ccccc1	52%
CN/C=C1/C(=O)N(c2nc3ccccc3s2)N=C1c1cccs1	75%
Cc1ccc(C2=NN(c3nc4ccccc4s3)C(=O)/C2=C/N)cc1Br	57%
N/C=C1/C(=O)N(c2nc3ccc([N+](=O)[O-])cc3s2)N=C1c1cccc(C(F)(F)F)c1	73%
COc1ccc(CN/C=C2/C(=O)N(c3nc4ccccc4s3)N=C2c2ccccc2)cc1	35%
N/C=C1/C(=O)N(c2nc3ccccc3s2)N=C1c1ccc(Br)s1	57%
N/C=C1/C(=O)N(c2nc3ccc(Cl)cc3s2)N=C1c1ccccc1	89%
N/C=C1/C(=O)N(c2nc3ccccc3s2)N=C1c1cccc(Cl)c1	91%
N/C=C1/C(=O)N(c2nc3ccccc3s2)N=C1c1cc2ccccc2s1	76%
CC1=NN(c2nc3ccccc3s2)C(=O)/C1=C/N1CCCCC1	88%

same assay, conditions: PC3 cells incubated with compound (10 μM) for 4 days prior to assay; 48 hours invasion; versus DMSO treated cells; several values = repeated assays; 10 µM

SMILES	Results % inhibition of invasion in invasion assays
N/C=C1/C(=O)N(c2nc3ccccc3s2)N=C1c1cccc(Br)c1	76%
N/C=C1/C(=O)N(c2nc3ccccc3s2)N=C1c1ccccc1	49% and 45%
N/C=C1/C(=O)N(c2nc3ccccc3s2)N=C1c1cccc(C(F)(F)F)c1 [drawing 36]	89% and 82% and 78%

tested on: PC-3M-Pro4luc+ cells; test: Formation of de novo skeletal metastases in mice, whole body bioluminescence imaging; type: in vivo; settings: treatment of mice
Text: Treatment of mice with 4-[1-aminomethylidene]-2-benzothiazol-2-yl-5-phenyl-2,4-dihydro-pyrazol-3-one decreased the number of bone lesions and metastatic tumor burden. Cancer cells and tumor burden were monitored by whole body bioluminescence imaging. […] Such in vivo testing may lead to further selection, preference, deselection or disfavor of individual compounds for further programs for development of a compound for use in a prescription medicine. A particular compound of interest for such advanced testing is, 4-(aminomethylene)-2-(2-benzothiazolyl)-2,4-dihydro-5-(3-chlorophenyl)-3H-pyrazol-3-one.

SMILES	metastatic tumor burden	number of bone lesions
NC=C1C(=O)N(c2nc3ccccc3s2)N=C1c1ccccc1 [Example 2, 4-[1-Aminomethylidene]-2-benzothiazol-2-yl-5-phenyl-2,4-dihydro-pyrazol-3-one]	decreased	decreased
